Assay results reported in patent US20210353579A1, “HIGH PENETRATION COMPOSITIONS AND USES THEREOF” (Techfields Pharma Co., Ltd., priority 2006, published 2021).
Values after ≈ are worked out from the molar mass of the structure shown.

Columns and labels:
[1] = Plasma levels after transdermal administration to hairless mice; assay type: in vivo; conditions: for t, time to peak plasma level after parent compound: parent compound administered (time when taken orally); for Peak plasma concentration after parent compound: parent compound administered, hairless mice
Experimental: Tested compounds (20% solution or suspension in 1 mL isopropanol) are administered transdermally to the skin of intact hairless mice. The plasma levels of the parent compounds are determined by HPLC.

human skin tissue = conditions: human, 20 %, pH 7.4
in vivo = conditions: rat
Experimental: The acute toxicity of the prodrug compounds and parent compounds are measured by LD50 of rat.

[2] = Solubility in water / aqueous solubility of HPPs and parent drugs; conditions: water
mice = test: Analgesic activity, acetic acid writhing; assay type: in vivo; conditions: 30 min before acetic acid; for inhibition at 50 mg/kg / inhibition at 100 mg/kg: Mus musculus, po, read-out: % (rate of writhing inhibition)
Experimental: The prodrug compounds are administered either transdermally or orally. The parent compounds are administered orally. The number of writhing that occurred when mice are administered the acetic acid solution are counted, and the rate of inhibition based on the control group which was not pretreated with any test compounds is calculated. […] The A group is the control group.

rats = test: Antipyretic activity, E. coli suspension as pyrogen; assay type: in vivo; conditions: in °C (unit assumed)
Experimental: Rats are administered with sterilized E. coli suspension as a pyrogen. Each group of rats are administered with a prodrug compounds or parent compounds at a dosage specified below. The prodrug compounds are administered either orally or transdermally. The parent compounds are administered orally.
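Wherever LD50 is given: acute toxicity in rats expressed as LD50, determined for both prodrugs and their parent compounds.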

Compound | t, time to peak plasma level after parent compound [1] [h] | Peak plasma concentration after parent compound [1] [mg/L] | In vitro penetration rate (apparent flux), parent compounds (human skin tissue) [μg/cm^2/h] | LD50 (in vivo) [mg/kg] | solubility [2] [µg/mL] | other results
COc1ccc2c(c1)c(CC(=O)OCC(=O)O)c(C)n2C(=O)c1ccc(Cl)cc1 [Acemetacin, acemetacin] | 1 to 2 | 0.1 | 10 | 24 | 100 (≈ 240 µM) | 
C=C(C)CNc1ccc(C(C)C(=O)O)cc1 (stereo not drawn) [Alminoprofen, alminoprofen] | 2 to 4 | 10 | 30 | 2400 | 100 (≈ 456 µM) | 
Nc1c(CC(=O)O)cccc1C(=O)c1ccccc1 [Amfenac, amfenac] | 1 to 2 | 0.1 | 10 | 310 | 200 (≈ 783 µM) | 
CC(=O)Oc1ccccc1C(=O)O [Aspirin, acetylsalicylic acid, reference compound] | ~2 | 0.1 | <1 | 1500 | 10 (≈ 55.5 µM) | No. of Writhing (mice; 50 mg/kg orally): 18.2; No. of Writhing (mice; 100 mg/kg orally): 13.2; inhibition at 50 mg/kg (mice; 50 mg/kg orally): 45%; inhibition at 100 mg/kg (mice; 100 mg/kg orally): 60%; body temperature, t = 0 min (rats; 100 mg/kg orally): 37.22 ± 0.05; body temperature, t = 90 min (rats; 100 mg/kg orally): 36.80 ± 0.05; body temperature, t = 180 min (rats; 100 mg/kg orally): 36.85 ± 0.05; body temperature, t = 270 min (rats; 100 mg/kg orally): 36.81 ± 0.05; body temperature, t = 0 min (rats; 150 mg/kg orally): 37.30 ± 0.06; body temperature, t = 90 min (rats; 150 mg/kg orally): 36.50 ± 0.05; body temperature, t = 180 min (rats; 150 mg/kg orally): 36.59 ± 0.05; body temperature, t = 270 min (rats; 150 mg/kg orally): 36.55 ± 0.05
CC(C(=O)O)c1ccc2oc(-c3ccc(Cl)cc3)nc2c1 (stereo not drawn) [Benoxaprofen, benoxaprofen] | 2 to 4 | 10 | 40 | 800 | 100 (≈ 331 µM) | 
CC(C(=O)O)c1ccc2c(c1)[nH]c1ccc(Cl)cc12 (stereo not drawn) [Carprofen, carprofen] | 2 to 4 | 10 | 40 | 400 | 100 (≈ 365 µM) | 
O=C(O)C1CCc2cc(C3CCCCC3)c(Cl)cc21 (stereo not drawn) [Clidanac, clidanac] | 2 to 4 | 10 | 40 | 35 | 100 (≈ 359 µM) | 
O=C(O)c1cc(-c2ccc(F)cc2F)ccc1O [Diflunisal, 5-(2,4-difluorophenyl) salicylic acid, reference compound] | 1 to 2 | 0.2 | <1 | 500 | 50 (≈ 200 µM) | No. of Writhing (mice; 50 mg/kg orally): 18.1; No. of Writhing (mice; 100 mg/kg orally): 13.2; inhibition at 50 mg/kg (mice; 50 mg/kg orally): 48%; inhibition at 100 mg/kg (mice; 100 mg/kg orally): 62%; body temperature, t = 0 min (rats; 100 mg/kg orally): 37.25 ± 0.06; body temperature, t = 90 min (rats; 100 mg/kg orally): 36.81 ± 0.05; body temperature, t = 180 min (rats; 100 mg/kg orally): 36.82 ± 0.08; body temperature, t = 270 min (rats; 100 mg/kg orally): 36.78 ± 0.07; body temperature, t = 0 min (rats; 150 mg/kg orally): 37.35 ± 0.09; body temperature, t = 90 min (rats; 150 mg/kg orally): 36.61 ± 0.07; body temperature, t = 180 min (rats; 150 mg/kg orally): 36.56 ± 0.06; body temperature, t = 270 min (rats; 150 mg/kg orally): 36.57 ± 0.05
CCc1cccc2c3c([nH]c12)C(CC)(CC(=O)O)OCC3 (stereo not drawn) [Etodolac, etodolac] | 1 to 2 | 0.1 | 10 | 460 | 100 (≈ 348 µM) | 
O=C(O)Cc1ccccc1Oc1ccc(Cl)cc1Cl [Fenclofenac, fenclofenac] | 1 to 2 | 0.1 | 10 | 2280 | 100 (≈ 337 µM) | 
O=C(O)C(Cl)c1ccc(C2CCCCC2)c(Cl)c1 (stereo not drawn) [Fenclorac, fenclorac] | 2 to 4 | 10 | 40 | 430 | 200 (≈ 696 µM) | 
CC(C(=O)O)c1cccc(Oc2ccccc2)c1 (stereo not drawn) [Fenoprofen, 2-(3-phenoxyphenyl) propionic acid, reference compound] | 1 to 2 | 1 | <1 | 800 | 100 (≈ 413 µM) | No. of Writhing (mice; 50 mg/kg orally): 13.2; inhibition at 50 mg/kg (mice; 50 mg/kg orally): 62%; body temperature, t = 0 min (rats; 50 mg/kg orally): 37.22 ± 0.07; body temperature, t = 90 min (rats; 50 mg/kg orally): 36.82 ± 0.06; body temperature, t = 180 min (rats; 50 mg/kg orally): 36.80 ± 0.05; body temperature, t = 270 min (rats; 50 mg/kg orally): 36.77 ± 0.08
O=C(O)Cc1sc(-c2ccccc2)nc1-c1ccc(Cl)cc1 [Fentiazac, fentiazac, reference compound] | 1 to 2 | 0.1 | 10 | 700 |  | 
O=C(O)c1ccccc1Nc1cccc(C(F)(F)F)c1 [Flufenamic acid, flufenamic acid] | 2 to 4 | 0.1 | 10 | 720 | < 100 | 
CC(C)Cc1ccc(C(C)C(=O)O)cc1 (stereo not drawn) [Ibuprofen, 2-(ρ-isobutylphenyl) propionic acid, reference compound] | 1 to 2 | 2 | 50 | 1500 |  | No. of Writhing (mice; 50 mg/kg orally): 17.2; No. of Writhing (mice; 100 mg/kg orally): 13.1; inhibition at 50 mg/kg (mice; 50 mg/kg orally): 50%; inhibition at 100 mg/kg (mice; 100 mg/kg orally): 62%; body temperature, t = 0 min (rats; 100 mg/kg orally): 37.25 ± 0.06; body temperature, t = 90 min (rats; 100 mg/kg orally): 36.83 ± 0.05; body temperature, t = 180 min (rats; 100 mg/kg orally): 36.80 ± 0.08; body temperature, t = 270 min (rats; 100 mg/kg orally): 36.78 ± 0.07; body temperature, t = 0 min (rats; 150 mg/kg orally): 37.35 ± 0.09; body temperature, t = 90 min (rats; 150 mg/kg orally): 36.59 ± 0.07; body temperature, t = 180 min (rats; 150 mg/kg orally): 36.53 ± 0.06; body temperature, t = 270 min (rats; 150 mg/kg orally): 36.55 ± 0.05
COc1ccc2c(c1)c(CC(=O)O)c(C)n2C(=O)c1ccc(Cl)cc1 [Indomethacin, indomethacin] | 1 to 2 | 0.1 | 10 | 13 | 100 (≈ 279 µM) | 
CC(C(=O)O)c1ccc(N2Cc3ccccc3C2=O)cc1 (stereo not drawn) [Indoprofen, indoprofen] | 2 to 4 | 10 | 30 | 700 | 100 (≈ 355 µM) | 
O=C(O)Cc1cn(-c2ccccc2)nc1-c1ccc(Cl)cc1 [Lonazolac, lonazolac, reference compound] | 1 to 2 | 0.1 |  | 1000 | 100 (≈ 320 µM) | 
Cc1cccc(Nc2ccccc2C(=O)O)c1C [Mefenamic acid, mefenamic acid] | 2 to 4 | 0.1 | 10 | 600 | < 100 | 
O=C(O)c1cccnc1Nc1cccc(C(F)(F)F)c1 [Niflumic acid, niflumic acid] | 2 to 4 | 0.1 | 10 | 650 | < 100 | 
CN1C(C(=O)Nc2ccccn2)=C(O)c2ccccc2S1(=O)=O [Piroxicam, piroxicam] | 2 to 4 | 0.1 | <1 | 360 | < 100 | 
CC(C(=O)O)c1ccc2c(c1)Cc1cccnc1O2 (stereo not drawn) [Pranoprofen, pranoprofen] | 2 to 4 | 10 | 30 | 450 | 200 (≈ 783 µM) | 
Cc1ccc(C(=O)c2ccc(CC(=O)O)n2C)cc1 [Tolmetin, tolmetin] | 1 to 2 | 0.1 | 10 | 350 | 200 (≈ 777 µM) | 
Cc1cc(CC(=O)O)n(C)c1C(=O)c1ccc(Cl)cc1 [Zomepirac, zomepirac] | 1 to 2 | 0.1 | 10 | 27 | 200 (≈ 686 µM) | 
